Results from patent publication US20040024024A1, “Aromatic sulfone hydroxamates and their use as protease inhibitors” (priority 2001, published 2004).

How the values were obtained:
Assay in all cases: In vitro MMP inhibition, IC50 determination (fluorogenic substrate I)
Type in all cases: biochemical
Human recombinant MMP-2 = target: T1, Human recombinant MMP-2 (Homo sapiens, UniProt P08253)
T1 construct: made in house; host or cells: MMP-2-transfected p2AHT2 cells
T1 sequence (P08253 110-660): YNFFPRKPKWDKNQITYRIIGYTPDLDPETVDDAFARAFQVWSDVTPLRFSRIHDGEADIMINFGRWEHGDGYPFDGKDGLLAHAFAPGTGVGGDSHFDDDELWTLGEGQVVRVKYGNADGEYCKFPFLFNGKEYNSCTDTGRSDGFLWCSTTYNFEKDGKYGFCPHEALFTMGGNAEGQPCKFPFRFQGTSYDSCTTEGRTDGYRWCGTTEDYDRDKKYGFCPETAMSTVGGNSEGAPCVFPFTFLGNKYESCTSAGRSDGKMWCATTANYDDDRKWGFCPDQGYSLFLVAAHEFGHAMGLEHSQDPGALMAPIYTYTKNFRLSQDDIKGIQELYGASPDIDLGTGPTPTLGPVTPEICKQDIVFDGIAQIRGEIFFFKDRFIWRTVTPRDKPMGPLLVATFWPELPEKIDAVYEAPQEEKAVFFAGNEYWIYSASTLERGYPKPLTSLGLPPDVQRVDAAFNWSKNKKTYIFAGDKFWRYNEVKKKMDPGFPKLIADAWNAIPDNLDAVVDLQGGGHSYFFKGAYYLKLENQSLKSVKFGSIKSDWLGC
How it was run: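 APMA- or trypsin-activated recombinant MMP-2 was incubated at room temperature with serial inhibitor dilutions in Tris buffer pH 7.5 (100 mM NaCl, 10 mM CaCl2, 0.05% Brij), with DMSO from 1% stocks, and 4 μM substrate I. Cleavage was read by fluorescence at 328/415 nm; IC50 was taken from the loss of fluorescence versus inhibitor concentration.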

Human recombinant MMP-1 = target: T2, Human recombinant MMP-1 (Homo sapiens, UniProt P03956)
T2 construct: made in house; host or cells: MMP-1-transfected HT-1080 cells (spent media)
T2 sequence (P03956 100-469): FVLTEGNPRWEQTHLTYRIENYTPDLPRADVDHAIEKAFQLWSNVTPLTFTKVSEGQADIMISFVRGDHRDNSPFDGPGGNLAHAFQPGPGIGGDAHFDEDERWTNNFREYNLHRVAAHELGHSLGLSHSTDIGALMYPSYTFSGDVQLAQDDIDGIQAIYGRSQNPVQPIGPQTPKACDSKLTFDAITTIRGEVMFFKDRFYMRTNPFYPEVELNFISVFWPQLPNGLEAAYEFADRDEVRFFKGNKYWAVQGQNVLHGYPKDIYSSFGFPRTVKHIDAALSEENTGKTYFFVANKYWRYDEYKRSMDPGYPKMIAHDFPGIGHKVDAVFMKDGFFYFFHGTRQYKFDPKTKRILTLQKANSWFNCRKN
How it was run: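 APMA- or trypsin-activated enzyme, purified from spent media of transfected HT-1080 cells, incubated at room temperature with 4 μM MCA-Pro-Leu-Gly-Leu-Dpa-Ala-Arg-NH2 and graded inhibitor in Tris buffer pH 7.5 (10 mM CaCl2, 0.05% Brij). Cleavage read by fluorescence (ex 328/em 415 nm); IC50 from fluorescence reduction versus inhibitor concentration.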

Human recombinant MMP-14 = target: T3, Human recombinant MMP-14 (Homo sapiens, UniProt P50281)
T3 construct: The catalytic domain enzyme was expressed in E. coli inclusion bodies, solubilized in urea; made in house
How it was run: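 Catalytic-domain MMP-14, expressed in E. coli and refolded, activated with APMA or trypsin; compounds incubated at room temperature with 4 μM fluorogenic substrate I (MCA-PLGL-Dpa-AR-NH2) in Tris/NaCl/CaCl2 buffer, pH 7.5. Fluorescence at ex 328/em 415 nm; IC50 from loss of fluorescence versus inhibitor concentration.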

[1] = substrate (I) 4 μM, room temperature, values not in parenthesis

SMILES | IC50 (Human recombinant MMP-2; value outside parentheses) [nM] | IC50 (Human recombinant MMP-2; value outside parenthesis) [nM] | further results
O=C(NO)C1(S(=O)(=O)c2ccc(OCCCc3cccc(-c4ccc(C(F)(F)F)cc4)c3)cc2)CCOCC1 [Example 625] | 3500 | – | –
O=C(NO)C1(S(=O)(=O)c2ccc(OCCCc3cccc(-c4ccoc4)c3)cc2)CCOCC1 [Example 637] | 138 | – | IC50 (Human recombinant MMP-1; value outside parentheses): > 10000 nM; IC50 (Human recombinant MMP-14; value outside parentheses): > 10000 nM
COCCN1CCC(C(=O)NO)(S(=O)(=O)c2ccc(OCCCc3nnc(-c4ccccc4C(F)(F)F)o3)cc2)CC1 [Example 178] | – | 28.4 | IC50 (Human recombinant MMP-1; value outside parenthesis): > 10000 nM; IC50 (Human recombinant MMP-14; value outside parenthesis): > 10000 nM
O=C(NO)C1(S(=O)(=O)c2ccc(OCCCn3nnc(-c4ccc(OC(F)(F)F)cc4)n3)cc2)CCN(C2CC2)CC1 [Example 49] | – | – | IC50 (Human recombinant MMP-1; [1]): > 10000 nM; IC50 (Human recombinant MMP-14; [1]): > 10000 nM; IC50 (Human recombinant MMP-2; [1]): 274 nM
O=C(NO)C1(S(=O)(=O)c2ccc(OCCCc3cccc(-c4cc5ccccc5s4)c3)cc2)CCOCC1 [Example 633] | 2830 | – | –
CC(C)c1ccc(-c2cccc(CCCOc3ccc(S(=O)(=O)C4(C(=O)NO)CCOCC4)cc3)c2)cc1 [Example 160] | – | > 10000 | IC50 (Human recombinant MMP-1; value outside parenthesis): > 10000 nM
O=C(NO)C1(S(=O)(=O)c2ccc(OCCc3cccc(-c4ccccn4)c3)cc2)CCOCC1 [Example 40] | – | – | IC50 (Human recombinant MMP-1; [1]): > 10000 nM; IC50 (Human recombinant MMP-14; [1]): > 10000 nM; IC50 (Human recombinant MMP-2; [1]): 112 nM
O=C(NO)C1(S(=O)(=O)c2ccc(OCCCc3cccc(-c4ccc(F)cc4F)c3)cc2)CCOCC1 [Example 630] | 1170 | – | IC50 (Human recombinant MMP-1; value outside parentheses): > 10000 nM; IC50 (Human recombinant MMP-14; value outside parentheses): > 10000 nM
C=Cc1ccc(-c2cccc(CCCOc3ccc(S(=O)(=O)C4(C(=O)NO)CCOCC4)cc3)c2)cc1 [Example 635] | 2310 | – | –
O=C(NO)C1(S(=O)(=O)c2ccc(OCCCc3cccc(-c4ccc5c(c4)OCCO5)c3)cc2)CCOCC1 [Example 627] | 2070 | – | –
O=C(NO)C1(S(=O)(=O)c2ccc(OCCCc3cccc(-c4ccc(OC(F)(F)F)cc4)c3)cc2)CCOCC1 [Example 147] | – | 4750 | –
O=C(NO)C1(S(=O)(=O)c2ccc(OCCCc3cccc(-c4ccc(F)cc4)c3)cc2)CCOCC1 [Example 39] | – | – | IC50 (Human recombinant MMP-2; [1]): 1300 nM
Cc1ccccc1-c1cccc(CCCOc2ccc(S(=O)(=O)C3(C(=O)NO)CCOCC3)cc2)c1 [Example 164] | – | 1070 | –
O=C(NO)C1(S(=O)(=O)c2ccc(OCCCc3cccc(-c4ccccc4O)c3)cc2)CCOCC1 [Example 636] | 195 | – | –
O=C1Nc2ccc(-c3noc(CCCOc4ccc(S(=O)(=O)C5(C(=O)NO)CCN(C6CC6)CC5)cc4)n3)cc21 [Example 142] | – | 58.6 | –
O=C(NO)C1(S(=O)(=O)c2ccc(OCCCc3cccc(-c4ccncc4)c3)cc2)CCOCC1 [Example 149] | – | 77.1 | –
O=C(NO)C1(S(=O)(=O)c2ccc(OCCCc3nc(-c4cccnc4)no3)cc2)CCOCC1 [Example 578] | 20.5 | – | –
O=C(NO)C1(S(=O)(=O)c2ccc(OCCCc3cccc(-c4ccco4)c3)cc2)CCOCC1 [Example 97] | – | 185 | –
O=C(NO)C1(S(=O)(=O)c2ccc(OCCCc3cccc(-c4ccccc4Cl)c3)cc2)CCOCC1 [Example 162] | – | 1600 | –
Cc1ccc(-c2cccc(CCCOc3ccc(S(=O)(=O)C4(C(=O)NO)CCOCC4)cc3)c2)cc1C [Example 165] | – | 3400 | –
Cc1ccc(-c2cccc(CCCOc3ccc(S(=O)(=O)C4(C(=O)NO)CCOCC4)cc3)c2)s1 [Example 639] | 247 | – | –
O=C(NO)C1(S(=O)(=O)c2ccc(OCCCc3cccc(-n4ccnc4)c3)cc2)CCOCC1 [Example 574] | 29.4 | – | –
O=C(NO)C1(S(=O)(=O)c2ccc(OCCCc3cncc(Br)c3)cc2)CCOCC1 [Example 522] | 12.9 | – | –
